Values quoted from earlier work as cited in US20250230139A1, “Novel Process and Intermediate for the Preparation of Apalutamide” (BDR Lifesciences Private Limited, priority 2022, published 2025).

Key:
[1] = powder
prostate cancer = conditions: mouse xenograft models of prostate cancer
[2] = acidic carboxamide moiety
[3] = strong base (pH>11)

In the case of `CNC(=O)c1ccc(N2C(=S)N(c3cnc(C#N)c(C(F)(F)F)c3)C(=O)C23CCC3)cc1F` [Apalutamide, 4-[7-[6-cyano-5-(trifluoromethyl)pyridin-3-yl]-8-oxo-6-thioxo-5,7-diazaspiro[3.4]octan-5-yl]-2-fluoro-N-methylbenzamide], the hygroscopicity [1] is given as “non-hygroscopic”, the apoptosis (prostate cancer) is given as “increased apoptosis” and the tumor cell proliferation (prostate cancer) is given as “decreased tumor cell proliferation”. The tumor volume (prostate cancer) was “decreased tumor volume”, the “dissociation constant pKa” value [2] was 9.7 and the “solubility in aqueous media” value (aqueous media over a wide range of pH values) was “practically insoluble”. The “solubility in organic solvents” value (organic solvents) was “practically insoluble to very soluble” and the “stability to strong base” value [3] was “unstable”.
